Data: patent US6914045B2, “Glycopeptide antibiotics” (Wyeth Holdings Corporation, priority 2001, dated 2005)
In brackets after ≈: the same amount, converted by molar mass.

Columns and labels:
Test in all cases: in vitro antibacterial evaluation, MIC by broth dilution
Assay type in all cases: cell-based
Streptococcus sp. = conditions: broth dilution, 18 hours at 35° C.
In short: (§1)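 MIC, the lowest antibiotic concentration preventing growth, was read across 64-0.06 μg/mL with 5×10^5 CFU/mL inoculum. Method followed NCCLS M7-A2 broth dilution using Mueller-Hinton II; Gram-positive strains covered recent methicillin-, penicillin- and/or vancomycin-resistant clinical isolates.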

Enterococcus sp. = conditions: broth dilution, 18 hours at 35° C.
In short: as §1

Staphylococcus sp. = conditions: broth dilution, 18 hours at 35° C.
In short: as §1

Escherichia coli = conditions: 18 hours at 35° C.
In short: as §1

MIC Streptococcus agalactiae (GC 4564) (Streptococcus sp.; Streptococcus agalactiae (GC 4564)): 0.5 µg/mL (≈ 0.361 µM)
MIC Streptococcus pneumoniae (ATCC 6301) (Streptococcus sp.; Streptococcus pneumoniae (ATCC 6301)): 0.12 to 16 µg/mL
MIC Streptococcus pneumoniae (GC 1894) (Streptococcus sp.; Streptococcus pneumoniae (GC 1894)): 0.12 to 8 µg/mL
MIC Streptococcus pneumoniae (GC 4565) (Streptococcus sp.; Streptococcus pneumoniae (GC 4565)): 0.12 µg/mL (≈ 0.0867 µM)
MIC Streptococcus pyogenes (GC 4563) (Streptococcus sp.; Streptococcus pyogenes (GC 4563)): 0.12 µg/mL (≈ 0.0867 µM)
MIC Streptococcus pneumoniae (ATCC 6301) (Streptococcus sp.; strain ATCC 6301): 0.12 to 16 µg/mL
MIC Streptococcus pneumoniae (GC 1894) (Streptococcus sp.; strain GC 1894): 0.12 to 8 µg/mL
MIC Streptococcus pyogenes (GC 4563) (Streptococcus sp.; strain GC 4563): 0.12 µg/mL (≈ 0.0867 µM)
MIC Streptococcus agalactiae (GC 4564) (Streptococcus sp.; strain GC 4564): 0.5 µg/mL (≈ 0.361 µM)
MIC Streptococcus pneumoniae (GC 4565) (Streptococcus sp.; strain GC 4565): 0.12 µg/mL (≈ 0.0867 µM)
MIC Enterococcus avium (GC 4558) (Enterococcus sp.; Enterococcus avium (GC 4558)): >64 µg/mL
MIC Enterococcus faecalis (ATCC 29212) (Enterococcus sp.; Enterococcus faecalis (ATCC 29212)): >64 µg/mL
MIC Enterococcus faecalis (GC 2242) (Enterococcus sp.; Enterococcus faecalis (GC 2242)): >64 µg/mL
MIC Enterococcus faecalis (GC 2691) (Enterococcus sp.; Enterococcus faecalis (GC 2691)): >0.5 µg/mL
MIC Enterococcus faecalis (GC 3059) (Enterococcus sp.; Enterococcus faecalis (GC 3059)): >0.5 µg/mL
MIC Enterococcus faecalis (GC 4552) (Enterococcus sp.; Enterococcus faecalis (GC 4552)): >0.5 µg/mL
MIC Enterococcus faecalis (GC 4553) (Enterococcus sp.; Enterococcus faecalis (GC 4553)): >0.5 µg/mL
MIC Enterococcus faecalis (GC 4554) (Enterococcus sp.; Enterococcus faecalis (GC 4554)): >0.5 µg/mL
MIC Enterococcus faecalis (GC 6189) (Enterococcus sp.; Enterococcus faecalis (GC 6189)): >64 µg/mL
MIC Enterococcus faecium (GC 2243) (Enterococcus sp.; Enterococcus faecium (GC 2243)): >64 µg/mL
MIC Enterococcus faecium (GC 4556) (Enterococcus sp.; Enterococcus faecium (GC 4556)): >64 µg/mL
MIC Enterococcus faecium (GC 4557) (Enterococcus sp.; Enterococcus faecium (GC 4557)): 0.5 µg/mL (≈ 0.361 µM)
MIC Enterococcus faecalis (ATCC 29212) (Enterococcus sp.; strain ATCC 29212): >64 µg/mL
MIC Enterococcus faecalis (GC 2242) (Enterococcus sp.; strain GC 2242): >64 µg/mL
MIC Enterococcus faecium (GC 2243) (Enterococcus sp.; strain GC 2243): >64 µg/mL
MIC Enterococcus faecalis (GC 2691) (Enterococcus sp.; strain GC 2691): >0.5 µg/mL
MIC Enterococcus faecalis (GC 3059) (Enterococcus sp.; strain GC 3059): >0.5 µg/mL
MIC Enterococcus faecalis (GC 4552) (Enterococcus sp.; strain GC 4552): >0.5 µg/mL
MIC Enterococcus faecalis (GC 4553) (Enterococcus sp.; strain GC 4553): >0.5 µg/mL
MIC Enterococcus faecalis (GC 4554) (Enterococcus sp.; strain GC 4554): >0.5 µg/mL
MIC Enterococcus faecium (GC 4556) (Enterococcus sp.; strain GC 4556): >64 µg/mL
MIC Enterococcus faecium (GC 4557) (Enterococcus sp.; strain GC 4557): 0.5 µg/mL (≈ 0.361 µM)
MIC Enterococcus avium (GC 4558) (Enterococcus sp.; strain GC 4558): >64 µg/mL
MIC Enterococcus faecalis (GC 6189) (Enterococcus sp.; strain GC 6189): >64 µg/mL
MIC Coagulase Negative Staphylococcus (GC 4547) (Staphylococcus sp.): 32 µg/mL (≈ 23.1 µM)
MIC Coagulase Negative Staphylococcus (GC 4548) (Staphylococcus sp.): 16 to 32 µg/mL
MIC Coagulase Negative Staphylococcus (GC 4549) (Staphylococcus sp.): 16 to 32 µg/mL
MIC Coagulase Negative Staphylococcus (GC 4551) (Staphylococcus sp.): 32 µg/mL (≈ 23.1 µM)
MIC Coagulase Negative Staphylococcus (GC 6257) (Staphylococcus sp.): 16 µg/mL (≈ 11.6 µM)
MIC Staphylococcus aureus (ATCC 29213) (Staphylococcus sp.): 0.5 to 64 µg/mL
MIC Staphylococcus aureus (GC 1131) (Staphylococcus sp.): 0.5 to 64 µg/mL
MIC Staphylococcus aureus (GC 3051) (Staphylococcus sp.): 0.5 µg/mL (≈ 0.361 µM)
MIC Staphylococcus aureus (GC 3053) (Staphylococcus sp.): 0.5 µg/mL (≈ 0.361 µM)
MIC Staphylococcus aureus (GC 4541) (Staphylococcus sp.): 0.5 to 32 µg/mL
MIC Staphylococcus aureus (GC 4542) (Staphylococcus sp.): 0.5 µg/mL (≈ 0.361 µM)
MIC Staphylococcus aureus (GC 4544) (Staphylococcus sp.): 0.5 µg/mL (≈ 0.361 µM)
MIC Staphylococcus aureus (GC 4545) (Staphylococcus sp.): 0.5 µg/mL (≈ 0.361 µM)
MIC Staphylococcus aureus-SMITH (GC 4543) (Staphylococcus sp.): 0.5 to 64 µg/mL
MIC Coagulase Negative Staphylococcus (GC 4547) (Staphylococcus sp.; strain GC 4547): 32 µg/mL (≈ 23.1 µM)
MIC Coagulase Negative Staphylococcus (GC 4548) (Staphylococcus sp.; strain GC 4548): 16 to 32 µg/mL
MIC Coagulase Negative Staphylococcus (GC 4549) (Staphylococcus sp.; strain GC 4549): 16 to 32 µg/mL
MIC Coagulase Negative Staphylococcus (GC 4551) (Staphylococcus sp.; strain GC 4551): 32 µg/mL (≈ 23.1 µM)
MIC Coagulase Negative Staphylococcus (GC 6257) (Staphylococcus sp.; strain GC 6257): 16 µg/mL (≈ 11.6 µM)
MIC Staphylococcus aureus-SMITH (GC 4543) (Staphylococcus sp.; strain SMITH GC 4543): 0.5 to 64 µg/mL
MIC Staphylococcus aureus (ATCC 29213) (Staphylococcus sp.; strain ATCC 29213): 0.5 to 64 µg/mL
MIC Staphylococcus aureus (GC 1131) (Staphylococcus sp.; strain GC 1131): 0.5 to 64 µg/mL
MIC Staphylococcus aureus (GC 3051) (Staphylococcus sp.; strain GC 3051): 0.5 µg/mL (≈ 0.361 µM)
MIC Staphylococcus aureus (GC 3053) (Staphylococcus sp.; strain GC 3053): 0.5 µg/mL (≈ 0.361 µM)
MIC Staphylococcus aureus (GC 4541) (Staphylococcus sp.; strain GC 4541): 0.5 to 32 µg/mL
MIC Staphylococcus aureus (GC 4542) (Staphylococcus sp.; strain GC 4542): 0.5 µg/mL (≈ 0.361 µM)
MIC Staphylococcus aureus (GC 4544) (Staphylococcus sp.; strain GC 4544): 0.5 µg/mL (≈ 0.361 µM)
MIC Staphylococcus aureus (GC 4545) (Staphylococcus sp.; strain GC 4545): 0.5 µg/mL (≈ 0.361 µM)
MIC Escherichia coli (ATCC 25922) (Escherichia coli; strain ATCC 25922): >64 µg/mL
MIC Escherichia coli (GC 4559) (Escherichia coli; strain GC 4559): >64 µg/mL
MIC Escherichia coli (GC 4560) (Escherichia coli; strain GC 4560): 0.5 to 16 µg/mL
Compound: CC(c1ccccc1)C1NC(=O)CNC(=O)C(CO)NC(=O)C(C(O)C2CNC(=N)N2C2OC(CO)C(O)C(O)C2O)NC(=O)C(C(O)C2CNC(=N)N2)NC(=O)C(Cc2ccc(OC3OC(CO)C(OC4OC(CO)C(O)C5OC(c6ccccc6)OC45)C(O)C3O)cc2)NC1=O (single isomer, unassigned) [Example 104a, Cyclo[glycyl-β-methylphenylalanyl-O-[4-O-(2,3-O-benzylidenehexopyranosyl)hexopyranosyl]-tyrosyl-3-(2-iminoimidazolidin-4-yl)seryl-3-(3-hexopyranosyl-2-iminoimidazolidin-4-yl)-serylseryl]]
MIC Staphylococcus haemolyticus (GC 4546) (Staphylococcus sp.): 32 µg/mL (≈ 23.1 µM)
MIC Staphylococcus haemolyticus (GC 4546) (Staphylococcus sp.; strain GC 4546): 32 µg/mL (≈ 23.1 µM)
